From patent US20260126455A1, “Methods and Dosing Regimens for Preventing or Delaying Onset of Alzheimer's Disease and Other Forms of Dementia and Mild Cognitive Impairment” (priority 2020, published 2026)
pKi: −log10 of the molar value. Values joined by “and” are separate entries in the source; they are usually repeats but may differ in a detail not shown here. Equal values may be shown once. Read-outs that look alike come from different tables or passages of the source.

Key:
[1] = human, in vivo; cited from earlier work
[2] = test system: lipoprotein-associated phospholipase-A2; conditions: in vivo; cited from earlier work
[3] = over 20 epidemiological clinical trials; cited from earlier work
5HT6 receptor = 5HT6 receptor (Homo sapiens, UniProt P50406); conditions: in vivo; cited from earlier work
beta-secretase = molecular target: T1, beta-secretase (Homo sapiens, UniProt P56817); conditions: in vivo; cited from earlier work
T1 construct: from tissue; host or cells: clinical-trial subjects (in vivo)

SK-N-MC neurons [4] = experiment: Morphological scoring of SK-N-MC cells exposed to Abeta42 plus A7R compounds; format: cell-based, human
SK-N-MC neurons [5] = experiment: Abeta42 immunocytochemistry: intracellular Abeta42 labeling in SK-N-MC cells exposed to Abeta42 plus A7R compounds; format: cell-based, human
[6] = test system: A7R-transfected SK-N-MC human neuroblastoma cells; conditions: cited from earlier work; for Intracellular accumulation of the peptide: 100 nanomolar
C57BL/6J mice = experiment: CognitionWall discrimination learning test, 2-week study; format: in vivo
Procedure: This 2-week study was comprised of 2 groups of C57BL/6J mice as outlined in Table 5. Mice were infused with 100 μl pertussis toxin (3.0×10−3 μg/μl in saline) or 100 μl saline into the tail vein according to Table 5 to affect the BBB. Subsequently, Abeta42 (100 μl of 6.9 μM in saline) was infused into the tail vein. Groups 1 and 2 received 2 cycles of Abeta42 treatment.
Deficits in learning behavior correlated with degenerating neurons in mice treated with pertussis toxin and Abeta42 as compared with untreated mice in the 2-week study. The CognitionWall discrimination learning test was used to test learning behaviors in the mice. Fifteen minutes before the start of the discrimination learning (DL) and reversal learning (RL) task at 16.30 h on the 3th light phase in the Phenotyper, the CognitionWall was placed in front of the reward dispenser spout. After placement, several free rewards were dispensed and standard chow was removed from the feeding station. Mice had to learn to earn their food (Dustless Precision Pellets, 14 mg) by going through the left hole in the wall for the next 2 days (DL1 and DL2). The middle and right hole were deemed incorrect holes and passing through these holes was without any consequences. During the subsequent 2 days, the rewarded hole was switched to the right hole (reversal learning; RL1 and RL2). During DL and RL, one reward was delivered for every fifth entry through the correct hole (FR5 schedule of reinforcement). Mice were not required to make 5 consecutive correct entries (i.e., no chaining requirement). […] Online display of the number of earned rewards was used to evaluate food intake during the experiment. Based on pilot experiments to quantify the number of food rewards required to maintain body weight, mice were fed extra reward pellets when they earn fewer than 100 rewards per day for 2 or more consecutive days. […]

A7R [7] = molecular target: A7R (Rattus norvegicus, UniProt Q05941); conditions: rat receptors; read-out: Ki, binding to A7R; cited from earlier work
A7R [8] = conditions: guinea pig receptors; read-out: Ki, binding to A7R; cited from earlier work
[9] = test system: Human neuroblastoma SK-N-MC cells, transfected with A7R; conditions: 100 nanomolar for 6 hours; cited from earlier work
amyloid = conditions: Alzheimer's disease subjects; Solanezumab: Phase 3, mild Alzheimer's disease; cited from earlier work
ischemic brain = conditions: rat, in vivo; cited from earlier work

Sequence of amyloid (P05067 672-711): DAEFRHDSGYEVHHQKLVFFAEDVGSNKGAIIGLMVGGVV
Sequence of 5HT6 receptor (P50406 whole entry): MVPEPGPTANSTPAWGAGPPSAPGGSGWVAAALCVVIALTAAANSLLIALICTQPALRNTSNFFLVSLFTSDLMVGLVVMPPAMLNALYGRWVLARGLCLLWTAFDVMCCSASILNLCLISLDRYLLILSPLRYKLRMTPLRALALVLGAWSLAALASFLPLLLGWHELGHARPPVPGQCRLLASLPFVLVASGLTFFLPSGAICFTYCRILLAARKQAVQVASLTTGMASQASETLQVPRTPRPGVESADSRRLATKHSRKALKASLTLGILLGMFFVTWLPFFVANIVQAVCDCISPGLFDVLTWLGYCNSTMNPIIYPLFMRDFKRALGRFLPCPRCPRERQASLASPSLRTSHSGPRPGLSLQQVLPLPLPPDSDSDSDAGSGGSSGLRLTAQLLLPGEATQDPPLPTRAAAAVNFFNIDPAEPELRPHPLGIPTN
T1 sequence (P56817 46-501): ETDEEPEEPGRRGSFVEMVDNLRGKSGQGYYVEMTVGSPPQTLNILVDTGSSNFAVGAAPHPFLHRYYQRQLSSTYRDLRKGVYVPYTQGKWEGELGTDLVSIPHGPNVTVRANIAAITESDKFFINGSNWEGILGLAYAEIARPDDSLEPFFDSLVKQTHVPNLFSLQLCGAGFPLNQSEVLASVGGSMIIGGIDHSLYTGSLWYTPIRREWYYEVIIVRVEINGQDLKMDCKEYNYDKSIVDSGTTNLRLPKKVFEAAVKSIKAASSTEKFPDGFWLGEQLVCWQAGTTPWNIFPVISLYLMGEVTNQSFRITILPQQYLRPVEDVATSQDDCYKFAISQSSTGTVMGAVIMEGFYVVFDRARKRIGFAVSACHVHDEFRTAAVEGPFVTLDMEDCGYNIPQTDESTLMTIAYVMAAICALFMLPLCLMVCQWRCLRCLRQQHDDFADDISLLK
Sequence of A7R (Rattus norvegicus, UniProt Q05941) (Q05941 23-502): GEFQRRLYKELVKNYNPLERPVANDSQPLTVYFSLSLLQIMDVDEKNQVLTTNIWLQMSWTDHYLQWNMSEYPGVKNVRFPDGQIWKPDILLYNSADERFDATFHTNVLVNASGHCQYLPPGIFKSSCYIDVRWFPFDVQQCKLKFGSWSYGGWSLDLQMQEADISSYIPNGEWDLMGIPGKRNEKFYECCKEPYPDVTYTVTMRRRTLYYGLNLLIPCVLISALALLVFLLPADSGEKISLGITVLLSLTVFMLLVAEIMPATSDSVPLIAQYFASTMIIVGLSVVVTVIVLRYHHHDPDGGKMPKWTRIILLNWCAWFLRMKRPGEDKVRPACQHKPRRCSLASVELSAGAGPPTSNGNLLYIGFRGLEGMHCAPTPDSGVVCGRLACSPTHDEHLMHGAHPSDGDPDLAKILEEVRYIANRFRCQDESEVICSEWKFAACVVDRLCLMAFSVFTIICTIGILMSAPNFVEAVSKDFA

For `CC(C)c1c(C(=O)Nc2ccccc2)c(-c2ccccc2)c(-c2ccc(F)cc2)n1CC[C@@H](O)C[C@@H](O)CC(=O)O` [Atorvastatin], the Cognitive measures [1] is listed as “did not improve cognitive measures”.
For `CCN(CC)CCN(Cc1ccc(-c2ccc(C(F)(F)F)cc2)cc1)C(=O)Cn1c(SCc2ccc(F)cc2)nc(=O)c2c1CCC2` [Darapladib], the BBB leakage [2] is given as “reducing BBB leakage” and the Progression of atherosclerosis [2] is given as “blocked the progression of atherosclerosis”.
In the case of `CC(C)Cc1ccc(C(C)C(=O)O)cc1` (stereo not drawn) [Ibuprofen], the “Risk of Alzheimer's disease” value [3] is given as “reduce the risk of Alzheimer's disease”.
In the case of `COc1ccc2c(c1)c(CC(=O)O)c(C)n2C(=O)c1ccc(Cl)cc1` [Indomethacin], the “Risk of Alzheimer's disease” value [3] is given as “reduce the risk of Alzheimer's disease”.
For `O=S(=O)(c1ccccc1)c1cnc2c(N3CCNCC3)cccc2c1` [Intepirdine], the “Goals of a pivotal trial” value (5HT6 receptor) is given as “failed to meet the goals of a pivotal trial”.
In the case of `NC1=N[C@@]2(c3cc(NC(=O)c4ccc(F)cn4)ccc3F)COC[C@H]2CS1` [LY2886721], the “Reason for stopping the clinical studies” value (beta-secretase) is listed as “toxicity”.
In the case of `CN1CCCC1c1cccnc1` (stereo not drawn) [Nicotine], the “Morphologic scores 2 hr” value (SK-N-MC neurons [4]) was 2.7, the “Morphologic scores 4 hr” value (SK-N-MC neurons [4]) was 2.8 and the “Morphologic scores 6 hr” value (SK-N-MC neurons [4]) was 2.8. The “Abeta42 immunolabeling scores 2 hr” value (SK-N-MC neurons [5]) was 1.7 and the “Abeta42 immunolabeling scores 6 hr” value (SK-N-MC neurons [5]) was 0.3.
In the case of `c1cnc2cc3c(cc2n1)[C@@H]1CNC[C@H]3C1` [Varenicline], the “Protection of cells from Abeta42 toxicity (observed morphology)” value (SK-N-MC neurons [4]; cells treated with compound and Abeta42, similar at the other time points) was “protected from Abeta42 toxicity”.
In the case of Abeta40, the “Intracellular accumulation of the peptide” value (“Intracellular accumulation” for short) ([6]; 3 hours) is given as “little detectable accumulation”.
With Abeta42 the “Learning performance in words” value (C57BL/6J mice; 2-week pilot study, 6 mice per group) was “did not impact learning impairment”, the “Entries to reach the learning criterion, group value” (C57BL/6J mice; 2 NA scores estimated as ~500) was roughly 230 entries and the “Entries (entries to 80% correct learning criterion)” value (C57BL/6J mice; individual mouse, 2-week study, NA = too impaired to test, T1, T2 second Abeta42 dose most likely subcutaneous) was 307 and 130 and 180 and 264 and 134 and 370. The pKi (A7R [7]) was 11.39, the pKi (A7R [8]) was 11.30 and the Cell death [9] was “cell death”. The “Intracellular accumulation” value ([6]; 3 hours) was “prominent, irregularly shaped Abeta42-positive deposits” and the “Intracellular accumulation” value ([6]; within 30 minutes) was “some accumulation of Abeta42-positive material”.
In the case of Alpha-bungarotoxin, the “Morphologic scores 6 hr” value (SK-N-MC neurons [4]) is listed as 2.5, the “Inhibition of Abeta42 accumulation in transfected cells” value [6] is listed as “inhibited Abeta42 accumulation” and the “Abeta42 immunolabeling scores 1 hr” value (SK-N-MC neurons [5]) is listed as 0/1. The “Abeta42 immunolabeling scores 2 hr” value (SK-N-MC neurons [5]) was 1/0 and the “Abeta42 immunolabeling scores 4 hr” value (SK-N-MC neurons [5]) was 1/0.
For “Solanezumab: yet another anti-amyloid antibody”, the “Clinical trial efficacy end points” value (amyloid) is given as “failed to reach statistical significance”.
In the case of VEGF, the “Angiogenesis in the ischemic brain” value (ischemic brain) is given as “enhanced angiogenesis” and the Neurological recovery (ischemic brain) is given as “improved neurological recovery”.
